The values below come from PubChem BioAssay AID463109 (Sanford-Burnham Center for Chemical Genomics, 2010).

pIC50: −log10 of the molar value. The source made the active and inactive calls.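 How the source made its calls: active means mean IC50 below 10 µM; inactive means the rest.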

The target in the assay is Apelin receptor (Homo sapiens) (UniProt P35414). Kind of assay: APJ antagonists, beta-arrestin recruitment, SAR follow-up, cell-based, luminescence (AID 463109). The following applies: CHO-K1 AGTRL-1 PathHunter beta-arrestin luminescence.
Chain of Apelin receptor (Homo sapiens) (P35414 whole entry, looked up): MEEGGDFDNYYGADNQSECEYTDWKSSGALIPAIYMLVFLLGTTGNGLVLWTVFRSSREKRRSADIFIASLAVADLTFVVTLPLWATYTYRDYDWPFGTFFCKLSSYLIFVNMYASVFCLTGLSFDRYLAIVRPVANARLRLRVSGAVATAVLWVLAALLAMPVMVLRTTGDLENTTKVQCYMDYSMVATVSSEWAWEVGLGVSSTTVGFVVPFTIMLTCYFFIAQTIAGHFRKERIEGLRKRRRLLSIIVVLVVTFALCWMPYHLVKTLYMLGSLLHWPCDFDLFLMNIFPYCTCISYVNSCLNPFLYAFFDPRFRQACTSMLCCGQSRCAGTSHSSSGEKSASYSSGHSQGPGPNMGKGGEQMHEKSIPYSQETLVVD
One may read the pIC50 as −log10 of the IC50, conventionally taken in molar units. Take `CC(C)OC(=O)CN1C(=O)C(=O)c2ccccc21`: the pIC50 is 5.38. What is called IC50 is the point on the concentration scale where inhibition reaches its midpoint. As to `COC(=O)C1NN=C(C(=O)c2ccc(Cl)cc2)C1c1ccc(OC)cc1` (stereo not given), the IC50 result was “inactive”. The same measure, in the same setting: for `Cc1ccc(N=C2C(=O)Nc3c(C)cccc32)cc1` the value was “inactive”. In the case of `CC1(C)CC2(CC(c3ccccc3F)c3cc(Cl)c(O)cc3O2)NC(=S)N1` (stereo not given), the pIC50 was 5.24. Regarding `O=C(CNc1ccccc1C(=O)O)c1ccccc1`, the pIC50 is 5.53. On to `CNC(=O)c1nnsc1S(=O)(=O)c1ccc(Cl)cc1`, for which the IC50 entry is “inactive”. For the compound `Cc1cc(C)nc(NNS(=O)(=O)c2c(F)cc(F)cc2Br)n1`, the negative logarithm of the IC50 (pIC50) was 5.54.

`CC(C)(C)c1ccc(-n2nc(C#N)c(Cl)cc2=O)cc1`: the pIC50 was 5.45. With `FC(F)(F)c1cccc(Sc2nc(-c3ccccc3)nnc2C(F)(F)F)c1`, the IC50 entry was “inactive”.

Take `Cc1cc(C)nc(NNS(=O)(=O)c2ccc(Cl)cc2)n1`: the pIC50 was 5.05. Turning to `O=C(COC(=O)c1cccnc1)c1ccc(Cl)c(Cl)c1`, the IC50 result was “inactive”.

With `CC(C(=O)OCC(=O)c1cccc([N+](=O)[O-])c1)N1C(=O)C2C3C=CC(C3)C2C1=O` (stereo not given), the IC50 result is “inactive”. Take `Oc1cccc2ccc(/C=C/c3ccccc3Cl)nc12`: the IC50 entry is “inactive”. As to `COc1ccc(C(=O)CNc2cccc(F)c2)cc1`, the IC50 entry was “inactive”.

For `Cc1ccc2nc(C)cc(C(=O)OCC(=O)c3ccc(Cl)c([N+](=O)[O-])c3)c2c1`, the IC50 result was “inactive”. For the compound `COc1ccc(S(=O)(=O)NNc2nc(C)cc(C)n2)cc1Br`, the IC50 result was “inactive”. As for `Cc1cc(C)nc(NNS(=O)(=O)c2ccc(F)c(Cl)c2)n1`, the pIC50 is 5.58. For `S=C1NCCc2ccccc2C1c1ccccc1Cl` (stereo not given), the IC50 result was “inactive”. Turning to `O=C(Nc1nc2ccc(F)cc2s1)c1ccccn1`, the IC50 result is “inactive”. Still for that read-out and setting: for `O=S(=O)(NN=Cc1ccc(-c2ccccc2Cl)o1)c1ccccc1` the value was “inactive”; for `CC(C)N1CCc2c(sc(NC(=O)c3cc(-c4cccs4)nc4ccccc34)c2C(N)=O)C1`, “inactive”.

Consider `COc1ccccc1NCC(=O)c1ccc(Cl)cc1`, for which the pIC50 is 5.46. Take `O=C(CNc1ccc(Br)cc1)c1ccccc1`: the pIC50 is 5.65. As for `COc1ccc(S(=O)(=O)NNc2nc(C)cc(C)n2)cc1[N+](=O)[O-]`, the IC50 entry is “inactive”. Take `COc1ccc(N=C2C(=O)Nc3ccc(C)c(Br)c32)cc1`: the IC50 was > 79 µM (inactive). On to `Cc1cccc(N=C2C(=O)Nc3c(Cl)cccc32)c1`, for which the pIC50 is 5.64. Regarding `O=C1Nc2ccccc2C1=Nc1ccc(Br)cc1`, the pIC50 was 5.26. Take `O=C(CNc1cccc(Cl)c1)c1ccc(Br)cc1`: the IC50 was > 79 µM (inactive).

For the compound `Cc1cccc2c1NC(=O)C2=Nc1ccc(Cl)cc1`, the pIC50 was 5.09.

As for `Cc1ccc(OCC(=O)OCC(=O)c2cccc([N+](=O)[O-])c2)cc1C`, the IC50 entry was “inactive”. Consider `O=C1Nc2ccccc2C1=Nc1ccc(F)cc1`, for which the pIC50 is 5.23. As to `CSc1cccc(N=C2C(=O)Nc3ccccc32)c1`, the pIC50 is 5.42. Take `O=c1cc(CSc2ccc(Cl)cc2)nc(-c2ccccn2)[nH]1`: the IC50 result is “inactive”. In the case of `CC(=O)c1ccc(N=C2C(=O)Nc3ccccc32)cc1`, the pIC50 is 5.84.

Regarding `CCC1CCCCN1CC(=O)c1ccc(OC(F)F)cc1` (stereo not given), the IC50 result was “inactive”. Turning to `Cc1ccc(N=C2C(=O)Nc3ccc(Br)cc32)cc1`, the pIC50 is 5.33. With `Cc1ccc(C)c(NCC(=O)c2ccc(Cl)cc2)c1`, the pIC50 was 6.05. Consider `O=C(COC(=O)c1cnccn1)c1ccc(Cl)c([N+](=O)[O-])c1`, for which the pIC50 was 5.08. For the compound `CCN(CC)CC(=O)c1ccc(-c2ccccc2)cc1`, the IC50 result is “inactive”. For `O=C(Nc1nc2c(F)cc(F)cc2s1)c1ccccn1`, the pIC50 was 5.12. For the compound `O=C(COC(=O)c1ccncc1)c1ccc(Cl)c(Cl)c1`, the IC50 entry is “inactive”. For `CCC[N+](CC#Cc1ccccc1)(CCC)CC(=O)c1ccc(Cl)cc1`, the IC50 entry is “inactive”. Consider `O=C(CNS(=O)(=O)c1ccccc1)OCC(=O)c1cccc([N+](=O)[O-])c1`, for which the IC50 result is “inactive”. Consider `Cn1c(=O)c(C(=S)NC(=O)C2CC2)c(N)n(Cc2ccccc2)c1=O`, for which the IC50 entry was “inactive”. For `CCOc1ccc(N=C2C(=O)Nc3ccc(C)c(Br)c32)cc1`, the pIC50 was 5.18. Still for that read-out and setting: for `NC(=O)c1ccccc1NCC(=O)c1ccc(Cl)cc1` the value was 5.54.

On to `Cc1ccc(N=C2C(=O)Nc3ccccc32)cc1`, for which the IC50 result was “inactive”.

Take `CC(C)Cc1nc2oc3c(Cl)ncnc3c2c2c1CCC2`: the IC50 entry was “inactive”. In the case of `Cc1ccc(C(=O)CNc2cc(C)ccc2C)cc1`, the pIC50 was 5.64. The same measure, in the same setting: for `O=C(CNC(=O)c1ccco1)NCC(=O)OCC(=O)c1ccc(Cl)c([N+](=O)[O-])c1` the value was 5.27. Take `O=c1c2cc(Br)ccc2[nH]c(=S)n1Cc1ccccn1`: the IC50 result is “inactive”.

For the compound `COc1cccc(/C=C/c2ccc3cccc(O)c3n2)c1OC`, the IC50 result is “inactive”. Regarding `CCOC(=O)C1=NNC(C(=O)c2ccc(Cl)cc2)C1c1ccccc1` (stereo not given), the IC50 entry was “inactive”.

As for `CC(=O)Nc1ccc(NC(=O)CCC(=O)OCC(=O)c2ccc(C)c([N+](=O)[O-])c2)cc1`, the IC50 result was “inactive”. Turning to `Cc1ccc(C(=O)CNc2ccccc2)cc1`, the pIC50 is 5.55.
